The text below walks through data of patent US20150335602A1, “IMPROVEMENT OF COGNITIVE FUNCTION IN PRETERM INFANTS THAT ARE SMALL FOR GESTATIONAL AGE” (N.V. NUTRICIA, priority 2013, published 2015).

Holding throughout (type): in vivo, human
Test [1] can be described thus: Brain subcortical volumes by MRI at school age after enteral glutamine supplementation in the first month of life. The conditions noted are these: glutamine supplemented group versus control preterm group. How it is done: (§1) A randomized, placebo controlled clinical trial was performed. For a detailed protocol of the study, see van den Berg et al, 2004, Glutamine-enriched enteral nutrition in very low birth weight infants. Design of a double-blind randomised controlled trial [ISRCTN73254583], BMC Pediatrics 4:17.
(§2) In short: Infants with a gestational age <32 weeks and/or birth weight <1500 g were enrolled. […] Also comparisons were made with a control group (n=52) of term born infants.
(§3) The two powders were indistinguishable by appearance, colour and smell. […] Initially, the supplementation dose was based on birth weight. After 2 weeks the dose was adjusted to actual body weight. Two members of the nursing staff daily added supplementation to breast milk or to preterm formula (Nenatal®, Nutricia Nederland B. V., Zoetermeer, The Netherlands), according to the parents' choice. Per 100 ml, Nenatal® provides 78 kcal, 2.1 g protein (casein-whey protein weight ratio 40:60), 4.4 g fat and 7.5 g carbohydrate. […] Protocol guidelines for the introduction of parenteral and enteral nutrition are disclosed in van den Berg et al., 2004.
(§4) All statistical analyses are performed on an intention to treat basis. […]
Brain subcortical volumes were determined by MRI and calculated using FSL software “FAST” and corrected for age at MRI scan, gender and body weight for gestational age.

The nature of test [2]: Brain cortical volumes by MRI at school age after enteral glutamine supplementation in the first month of life. The following applies: glutamine supplemented group versus control preterm group. How it is done:
as §1, §2, §3, §4
Brain cortical volumes were determined by MRI and calculated using FSL software “FAST” and corrected for age at MRI scan, gender and body weight for gestational age.

Test [3] can be described thus: Intellectual development (WISC-III short form, FSIQ) in preterm children born small for gestational age. The following applies: SGA glutamine group versus SGA control group, n=9 each. How it is done: A subgroup of infants born small for gestational age (SGA <10th percentile) was identified and analysed separately. Intellectual development was analysed in this subgroup of infants by a short form of the Wechsler Intelligence Scale for Children-III (WISC-III), including the subtests Vocabulary and Block Design. Both subtests correlate strongly (r 0.90) with full-scale intelligence quotient (FSIQ). Scores on this test were normalised with a mean of 100 (SD 15). A group of nine SGA infants that received placebo was compared with a group of nine SGA infants that received glutamine treatment.

As to `NC(=O)CC[C@H](N)C(=O)O` [Glutamine, L-glutamine], in test [1], the “Brain stem volume compared to preterm control group (in words)” value is given as “significantly higher” and the “Hippocampus volume compared to preterm control group (in words)” value was “significantly higher”. The “White matter volume compared to preterm control group (in words)” value in test [2] is “significantly higher”. The “IQ compared to SGA control group (in words)” value in test [3] is “significant improvement”.
